Assays:
CAL-51 = settings: 72 h
Procedure: (§1)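 Drug sensitivity and resistance testing (DSRT) of breast cancer cell lines in 384-well plates, 5 concentrations in 10-fold dilutions over a compound-specific 10,000-fold range. After 72 h, cytotoxicity was read by CellTox Green fluorescence and viability by CellTiter-Glo luminescence (multiplexed), normalised to DMSO and benzethonium chloride controls. EC50 is the inflection point of the fitted dose-response curve (bottom asymptote free, so it can be relative for partial curves) and is censored at the highest tested concentration. Rows with DSS 0 (no meaningful response) were excluded.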

MDA-MB-231 = settings: 72 h
Procedure: as §1

| Compound | EC50, CellTox Green (CAL-51) | EC50, CellTox Green (MDA-MB-231) |
| --- | --- | --- |
| c1ccc2c(CCNc3ccc(Nc4ccncc4)cc3)c[nH]c2c1 [Serdemetan] | 285 nM | 8800 nM |
| COc1cc(O)c2c(c1)/C=C/C[C@H](O)[C@H](O)C(=O)/C=C\C[C@H](C)OC2=O [(5Z)-7-Oxozeaenol] | 9350 nM | 864 nM |
| CCOC(=O)CCNc1cc(N2CCc3ccccc3CC2)nc(-c2ccccn2)n1 [GSK-J4] | 9960 nM | 11300 nM |
| CC(C)C[C@@H](C(=O)N[C@H](C(=O)OC1CCCC1)c1ccccc1)[C@H](O)C(=O)NO [Tosedostat] | 35.5 nM | 52.9 nM |
| O=C(/C=C/c1cccc(S(=O)(=O)Nc2ccccc2)c1)NO [Belinostat] | 680 nM | 261 nM |
| Cc1[nH]c2ccccc2c1CCNCc1ccc(/C=C/C(=O)NO)cc1 [Panobinostat] | 30.8 nM | 21.6 nM |
| CCn1c(-c2nonc2N)nc2cnc(Oc3cccc(NC(=O)c4ccc(OCCN5CCOCC5)cc4)c3)cc21 | 48.1 nM | 2950 nM |
| COC(=O)c1ccc2c(c1)NC(=O)/C2=C(\Nc1ccc(N(C)C(=O)CN2CCN(C)CC2)cc1)c1ccccc1 [Nintedanib] | 2950 nM | 2190 nM |
| Nc1cc(C(F)(F)F)c(-c2cc(N3CCOCC3)nc(N3CCOCC3)n2)cn1 [Buparlisib] | 2900 nM | 3580 nM |
| COCC[n+]1c2c(n(Cc3cnccn3)c1C)C(=O)c1ccccc1C2=O [YM155] | 30.2 nM | 14.4 nM |

From the supplement of paper PMC4862054
